According to patent US8796268B2, “Heteroaryls and uses thereof” (Millennium Pharmaceuticals, Inc., priority 2010, dated 2014):

Key:
Format in all cases: biochemical
Human PI3K alpha = target: T1, Human PI3K alpha (Homo sapiens, UniProt P42336); assay: Human PI3K alpha enzyme assay (HTRF); conditions: concentration not given, b1387 states 1.1 μM for PI3K α and β; for inhibition at 1.1 µM: read-out: p110 alpha Percent Inhibition
T1 construct: His (N); host or cells: SF9 insect cells (baculovirus)
T1 sequence (P42336 whole entry): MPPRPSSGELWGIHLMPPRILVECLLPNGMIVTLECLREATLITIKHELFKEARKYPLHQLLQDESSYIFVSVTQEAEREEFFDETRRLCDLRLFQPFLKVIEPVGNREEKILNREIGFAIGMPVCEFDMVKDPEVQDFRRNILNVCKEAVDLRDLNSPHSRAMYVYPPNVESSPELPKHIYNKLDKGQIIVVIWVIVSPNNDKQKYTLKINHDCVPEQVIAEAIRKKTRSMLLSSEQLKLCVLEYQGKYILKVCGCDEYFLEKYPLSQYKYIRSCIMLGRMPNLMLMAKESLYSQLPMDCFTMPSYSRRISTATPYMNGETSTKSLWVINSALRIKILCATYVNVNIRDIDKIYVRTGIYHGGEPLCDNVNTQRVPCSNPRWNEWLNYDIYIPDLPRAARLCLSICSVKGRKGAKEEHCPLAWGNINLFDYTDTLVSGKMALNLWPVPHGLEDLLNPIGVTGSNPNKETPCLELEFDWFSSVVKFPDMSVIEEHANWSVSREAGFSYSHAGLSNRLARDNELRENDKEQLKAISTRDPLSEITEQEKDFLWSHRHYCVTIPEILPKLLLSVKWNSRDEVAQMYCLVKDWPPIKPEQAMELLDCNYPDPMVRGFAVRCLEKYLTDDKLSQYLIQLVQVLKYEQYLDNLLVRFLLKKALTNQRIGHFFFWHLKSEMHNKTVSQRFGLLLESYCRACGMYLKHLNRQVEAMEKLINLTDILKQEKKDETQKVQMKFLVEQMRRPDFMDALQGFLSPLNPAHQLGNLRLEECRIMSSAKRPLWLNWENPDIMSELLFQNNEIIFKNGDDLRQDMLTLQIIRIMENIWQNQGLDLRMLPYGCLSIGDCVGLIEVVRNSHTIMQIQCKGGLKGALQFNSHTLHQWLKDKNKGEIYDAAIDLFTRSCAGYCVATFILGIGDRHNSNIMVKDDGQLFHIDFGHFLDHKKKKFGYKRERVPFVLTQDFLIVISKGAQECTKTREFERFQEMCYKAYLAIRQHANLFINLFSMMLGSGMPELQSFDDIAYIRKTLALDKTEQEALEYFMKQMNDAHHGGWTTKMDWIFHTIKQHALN
T1 sequence (P27986 whole entry partner): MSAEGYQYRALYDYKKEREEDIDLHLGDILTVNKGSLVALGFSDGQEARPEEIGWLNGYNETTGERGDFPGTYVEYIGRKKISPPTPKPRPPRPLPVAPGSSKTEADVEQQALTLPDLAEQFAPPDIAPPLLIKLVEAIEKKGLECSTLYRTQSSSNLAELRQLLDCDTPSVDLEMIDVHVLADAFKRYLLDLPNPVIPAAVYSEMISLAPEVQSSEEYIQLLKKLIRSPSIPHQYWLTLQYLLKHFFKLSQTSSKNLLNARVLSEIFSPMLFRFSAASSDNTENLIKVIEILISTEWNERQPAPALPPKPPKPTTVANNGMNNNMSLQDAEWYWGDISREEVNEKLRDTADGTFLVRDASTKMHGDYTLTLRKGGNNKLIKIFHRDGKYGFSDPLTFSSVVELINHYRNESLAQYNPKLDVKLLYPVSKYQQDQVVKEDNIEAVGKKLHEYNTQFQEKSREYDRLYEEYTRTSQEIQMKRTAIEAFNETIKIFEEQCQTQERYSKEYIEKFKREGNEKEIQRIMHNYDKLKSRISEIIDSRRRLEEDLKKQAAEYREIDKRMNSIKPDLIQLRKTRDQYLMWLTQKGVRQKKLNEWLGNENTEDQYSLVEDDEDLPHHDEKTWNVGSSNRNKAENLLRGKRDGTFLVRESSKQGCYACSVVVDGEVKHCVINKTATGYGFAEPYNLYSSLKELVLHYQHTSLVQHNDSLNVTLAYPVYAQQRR

Human PI3K beta = target: T2, Human PI3K beta (Homo sapiens, UniProt P42338); assay: Human PI3K beta enzyme assay (HTRF); conditions: concentration not given, b1387 states 1.1 μM for PI3K α and β; for inhibition at 1.1 µM: read-out: p110 beta Percent Inhibition
T2 construct: His (N); host or cells: SF9 insect cells (baculovirus)
T2 sequence (P42338 whole entry): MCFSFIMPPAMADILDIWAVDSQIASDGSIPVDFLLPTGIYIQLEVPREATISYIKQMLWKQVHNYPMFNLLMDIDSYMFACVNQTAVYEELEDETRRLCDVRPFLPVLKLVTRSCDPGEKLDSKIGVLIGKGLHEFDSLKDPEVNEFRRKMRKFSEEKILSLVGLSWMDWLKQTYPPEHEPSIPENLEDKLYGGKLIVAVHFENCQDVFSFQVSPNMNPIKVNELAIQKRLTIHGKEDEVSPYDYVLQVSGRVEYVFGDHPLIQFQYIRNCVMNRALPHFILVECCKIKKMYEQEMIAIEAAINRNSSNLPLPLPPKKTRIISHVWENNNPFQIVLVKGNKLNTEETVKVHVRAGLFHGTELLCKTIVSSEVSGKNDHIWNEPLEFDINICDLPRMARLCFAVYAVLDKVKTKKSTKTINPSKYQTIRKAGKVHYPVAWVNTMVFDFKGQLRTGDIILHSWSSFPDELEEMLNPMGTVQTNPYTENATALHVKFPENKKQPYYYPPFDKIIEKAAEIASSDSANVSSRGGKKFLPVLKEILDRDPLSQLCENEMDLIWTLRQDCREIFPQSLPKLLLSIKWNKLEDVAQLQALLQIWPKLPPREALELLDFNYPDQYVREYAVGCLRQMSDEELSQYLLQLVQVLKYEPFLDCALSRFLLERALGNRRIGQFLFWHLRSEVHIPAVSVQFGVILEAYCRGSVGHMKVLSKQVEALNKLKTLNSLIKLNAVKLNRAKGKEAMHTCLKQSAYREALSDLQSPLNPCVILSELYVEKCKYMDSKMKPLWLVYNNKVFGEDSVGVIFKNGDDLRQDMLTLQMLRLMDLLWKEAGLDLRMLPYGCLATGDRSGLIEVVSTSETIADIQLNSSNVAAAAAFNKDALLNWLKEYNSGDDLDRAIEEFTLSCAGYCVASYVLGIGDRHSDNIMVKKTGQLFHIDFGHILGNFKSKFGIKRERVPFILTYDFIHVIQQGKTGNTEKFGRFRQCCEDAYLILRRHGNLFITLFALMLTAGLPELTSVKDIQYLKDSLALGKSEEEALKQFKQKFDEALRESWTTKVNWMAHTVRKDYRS
T2 sequence (P27986 whole entry partner): as the sequence (P27986 whole entry partner) above
How it was run: (§1)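 Compounds were mixed with 25 uM ATP, then with 3.5 uM di-C8 PI(4,5)P2 and His-tagged PI3K isoform (β 5.25 nM, δ 0.75 nM, γ 5 nM) at pH 7.00. After 30 min at room temperature, EDTA stopped the reaction and PIP3 was measured by HTRF over 1 h.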

Human PI3K delta = target: T3, Human PI3K delta (Homo sapiens, UniProt O00329); assay: Human PI3K delta enzyme assay (HTRF); conditions: concentration not given, b1389 states 1.0 μM for PI3K δ and γ; for inhibition at 1 µM: read-out: p110 delta Percent Inhibition
T3 construct: His (N); host or cells: SF9 insect cells (baculovirus)
T3 sequence (O00329 whole entry): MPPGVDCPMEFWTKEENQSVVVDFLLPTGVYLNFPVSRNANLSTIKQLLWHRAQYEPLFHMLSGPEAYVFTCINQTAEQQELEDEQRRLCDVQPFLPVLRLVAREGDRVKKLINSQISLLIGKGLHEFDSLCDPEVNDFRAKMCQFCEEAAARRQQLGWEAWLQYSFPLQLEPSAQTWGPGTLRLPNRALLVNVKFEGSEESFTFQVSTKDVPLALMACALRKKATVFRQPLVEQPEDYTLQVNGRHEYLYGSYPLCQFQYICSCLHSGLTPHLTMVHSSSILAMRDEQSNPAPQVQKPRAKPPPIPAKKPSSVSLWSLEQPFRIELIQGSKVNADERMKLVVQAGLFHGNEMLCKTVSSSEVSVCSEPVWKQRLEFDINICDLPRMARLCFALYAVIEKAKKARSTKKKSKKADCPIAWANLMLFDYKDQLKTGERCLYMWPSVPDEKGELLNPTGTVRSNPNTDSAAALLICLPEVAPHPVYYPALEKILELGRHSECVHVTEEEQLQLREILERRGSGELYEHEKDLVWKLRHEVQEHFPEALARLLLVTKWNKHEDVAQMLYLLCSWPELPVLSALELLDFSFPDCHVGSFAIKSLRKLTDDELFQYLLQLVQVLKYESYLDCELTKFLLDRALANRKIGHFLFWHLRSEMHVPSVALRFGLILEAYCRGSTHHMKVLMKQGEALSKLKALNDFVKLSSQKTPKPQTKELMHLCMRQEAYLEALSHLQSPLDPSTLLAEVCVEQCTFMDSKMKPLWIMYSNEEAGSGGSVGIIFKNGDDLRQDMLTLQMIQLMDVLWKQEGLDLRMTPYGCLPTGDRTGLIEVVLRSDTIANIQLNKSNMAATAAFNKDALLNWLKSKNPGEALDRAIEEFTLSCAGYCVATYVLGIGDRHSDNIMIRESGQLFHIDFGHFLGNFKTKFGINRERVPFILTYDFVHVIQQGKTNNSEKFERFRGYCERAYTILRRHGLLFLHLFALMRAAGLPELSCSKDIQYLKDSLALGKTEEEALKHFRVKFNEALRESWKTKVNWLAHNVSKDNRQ
T3 sequence (P27986 whole entry partner): as the sequence (P27986 whole entry partner) above
How it was run: as §1

Human PI3K gamma = target: T4, Human PI3K gamma (Homo sapiens, UniProt P48736); assay: Human PI3K gamma enzyme assay (HTRF); conditions: concentration not given, b1389 states 1.0 μM for PI3K δ and γ; for inhibition at 1 µM: read-out: p110 gamma Percent Inhibition
T4 construct: His (N); host or cells: SF9 insect cells (baculovirus)
T4 sequence (P48736 whole entry): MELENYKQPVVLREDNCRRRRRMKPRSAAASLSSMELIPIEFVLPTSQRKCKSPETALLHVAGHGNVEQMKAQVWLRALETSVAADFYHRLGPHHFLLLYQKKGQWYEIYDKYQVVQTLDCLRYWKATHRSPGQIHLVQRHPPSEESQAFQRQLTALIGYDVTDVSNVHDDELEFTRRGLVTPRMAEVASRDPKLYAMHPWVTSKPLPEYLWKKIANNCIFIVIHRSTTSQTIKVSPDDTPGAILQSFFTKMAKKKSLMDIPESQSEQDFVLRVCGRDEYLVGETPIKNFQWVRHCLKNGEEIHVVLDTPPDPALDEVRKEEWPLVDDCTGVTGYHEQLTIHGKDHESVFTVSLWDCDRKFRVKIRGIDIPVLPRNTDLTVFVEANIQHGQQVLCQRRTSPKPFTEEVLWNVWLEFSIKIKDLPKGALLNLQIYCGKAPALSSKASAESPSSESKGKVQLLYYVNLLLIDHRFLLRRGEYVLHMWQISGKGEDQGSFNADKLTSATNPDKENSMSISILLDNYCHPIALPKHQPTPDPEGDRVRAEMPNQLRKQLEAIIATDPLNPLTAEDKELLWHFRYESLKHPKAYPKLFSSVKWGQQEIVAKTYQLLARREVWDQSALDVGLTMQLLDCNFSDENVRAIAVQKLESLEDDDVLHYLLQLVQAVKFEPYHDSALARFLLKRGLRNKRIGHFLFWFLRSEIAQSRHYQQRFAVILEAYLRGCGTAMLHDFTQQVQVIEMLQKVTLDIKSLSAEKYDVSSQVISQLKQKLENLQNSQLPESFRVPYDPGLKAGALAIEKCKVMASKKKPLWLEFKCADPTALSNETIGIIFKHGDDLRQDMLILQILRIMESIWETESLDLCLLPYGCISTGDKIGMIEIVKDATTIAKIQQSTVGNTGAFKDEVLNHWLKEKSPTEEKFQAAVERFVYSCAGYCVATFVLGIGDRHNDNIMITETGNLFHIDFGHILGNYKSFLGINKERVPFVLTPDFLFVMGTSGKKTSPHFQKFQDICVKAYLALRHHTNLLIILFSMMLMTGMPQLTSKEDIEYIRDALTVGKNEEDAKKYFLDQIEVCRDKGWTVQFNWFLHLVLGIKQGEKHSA
How it was run: as §1

Compound | inhibition at 1.1 µM (Human PI3K alpha) [%] | inhibition at 1.1 µM (Human PI3K beta) [%] | inhibition at 1 µM (Human PI3K delta) [%] | inhibition at 1 µM (Human PI3K gamma) [%] | p110 alpha Percent Inhibition (Human PI3K alpha) [%] | p110 beta Percent Inhibition (Human PI3K beta) [%] | p110 delta Percent Inhibition (Human PI3K delta) [%] | p110 gamma Percent Inhibition (Human PI3K gamma) [%]
COC(=O)Nc1cc(-c2sc(-c3nnc[nH]3)c(Cc3ccc4ccccc4c3)c2C#N)ccn1 [Compound 179] | 29 | 60 | 89 | 5 | – | – | – | –
CC(=O)Nc1cc(-c2cc(C(OCC3CNC3)c3ccc(Cl)cc3)c(-c3nnc[nH]3)s2)ccn1 (centres unmarked) [Compound 182] | 83 | 100 | 107 | 45 | – | – | – | –
CC(=O)Nc1cc(-c2cc(C(NCCN(C)C)c3ccc(Cl)cc3)c(-c3nnc[nH]3)s2)ccn1 (centres unmarked) [Compound 184] | 76 | 112 | 112 | 16 | – | – | – | –
CN(C)C(c1ccc(Cl)cc1)c1cc(-c2ccnc(N)c2)sc1-c1nnc[nH]1 (centres unmarked) [Compound 185] | 16 | 97 | 50 | 9 | – | – | – | –
OC(c1ccc(F)cc1Cl)c1cc(-c2ccncc2)sc1-c1nnc[nH]1 (centres unmarked) [Compound 187] | 32 | 95 | 77 | 25 | – | – | – | –
Cc1ccc(F)c(C(O)c2cc(-c3ccncc3)sc2-c2nnc[nH]2)c1 (centres unmarked) [Compound 188] | 47 | 94 | 82 | 36 | – | – | – | –
COC(=O)Nc1cc(-c2sc(-c3nnc[nH]3)c(C(O)c3ccc(Cl)cc3)c2C#N)ccn1 (centres unmarked) [Compound 195, Methyl {4-[4-[(4-chlorophenyl)(hydroxy)methyl]-3-cyano-5-(4H-1,2,4-triazol-3-yl)-2-thienyl]pyridin-2-yl}carbamate] | 52 | 74 | 88 | 8 | – | – | – | –
CC(=O)Nc1cc(-c2cc(C(c3ccc(Cl)cc3)N3CCN(C(C)=O)CC3)c(-c3nnc[nH]3)s2)ccn1 (centres unmarked) [Compound 196] | 69 | 91 | 105 | 12 | – | – | – | –
COc1cnc(Cl)cc1-c1cc(C(O)c2ccc(Cl)cc2)c(-c2nnc[nH]2)s1 (centres unmarked) [Compound 197] | 15 | 23 | 19 | 4 | – | – | – | –
N#Cc1c(-c2ccnnc2)sc(-c2nnc[nH]2)c1C(O)c1ccc2ccccc2c1 (centres unmarked) [Compound 198] | 18 | 108 | 70 | 35 | – | – | – | –
OC(c1ccc(F)c(F)c1)c1cc(-c2ccncc2)sc1-c1nnc[nH]1 (centres unmarked) [Compound 199] | 21 | 64 | 42 | 16 | – | – | – | –
COc1ccc(C(O)c2cc(-c3ccncc3)sc2-c2nnc[nH]2)cc1C (centres unmarked) [Compound 202] | 12 | 80 | 54 | 8 | – | – | – | –
O=C(O)c1sc(-c2ccncc2)cc1C(O)c1ccc2ccccc2c1 (centres unmarked) [Compound 205, 3-[hydroxy(2-naphthyl)methyl]-5-pyridin-4-ylthiophene-2-carboxylic acid] | 42 | 114 | 83 | 64 | – | – | – | –
OC(c1ccc(-c2ccncc2)cc1)c1cc(-c2ccncc2)sc1-c1nnc[nH]1 (centres unmarked) [Compound 207] | 27 | 83 | 51 | 9 | – | – | – | –
CN[C@@H]1CCN(C(c2ccc(Cl)cc2)c2cc(-c3ccnc(NC(C)=O)c3)sc2-c2nnc[nH]2)C1 (some centres unmarked) [Compound 209] | 92 | 107 | 108 | 34 | – | – | – | –
CC(=O)Nc1cc(-c2cc(C(N=[N+]=[N-])c3ccc(Cl)cc3)c(-c3nnc[nH]3)s2)ccn1 (centres unmarked) [Compound 211] | 111 | 111 | 106 | 13 | – | – | – | –

Continued, values first:

inhibition at 1.1 µM (Human PI3K alpha) [%] | inhibition at 1.1 µM (Human PI3K beta) [%] | inhibition at 1 µM (Human PI3K delta) [%] | inhibition at 1 µM (Human PI3K gamma) [%] | p110 alpha Percent Inhibition (Human PI3K alpha) [%] | p110 beta Percent Inhibition (Human PI3K beta) [%] | p110 delta Percent Inhibition (Human PI3K delta) [%] | p110 gamma Percent Inhibition (Human PI3K gamma) [%] | Compound
60 | 102 | 102 | 21 | – | – | – | – | COC(=O)Nc1cc(-c2sc(C(=O)O)c(Cc3ccc4ccccc4c3)c2C#N)ccn1 [Compound 180]
– | – | – | – | 85 | 91 | 108 | 35 | CC(=O)Nc1cc(-c2cc(C(c3ccc(Cl)cc3)N3CC(N(C)C)C3)c(-c3nnc[nH]3)s2)ccn1 (centres unmarked) [Compound 181, N-{4-[4-{(4-chlorophenyl)[3-(dimethylamino)azetidin-1-yl]-methyl}-5-(4H-1,2,4-triazol-3-yl)-2-thienyl]pyridin-2-yl}acetamide]
-2 | 16 | 9 | 3 | – | – | – | – | Cc1n[nH]c(C)c1-c1sc(-c2ccncc2)nc1Cc1ccc(Cl)cc1 [Compound 183]
68 | 109 | 92 | 65 | – | – | – | – | COc1cc(C(O)c2cc(-c3ccncc3)sc2-c2ncn[nH]2)c(F)cc1Cl (centres unmarked) [Compound 186]
3 | 60 | 33 | 7 | – | – | – | – | Clc1ccc(Cc2nc(-c3ccncc3)sc2-c2nnn[nH]2)cc1 [Compound 190, 4-(4-chlorobenzyl)-2-(pyridin-4-yl)-5-(1H-tetrazol-5-yl)thiazole]
26 | 97 | 90 | 30 | – | – | – | – | COc1ccc(C(O)c2cc(-c3ccncc3)sc2-c2nnc[nH]2)cc1Cl (centres unmarked) [Compound 191]
26 | 69 | 46 | 13 | – | – | – | – | OC(c1ccccc1C(F)(F)F)c1cc(-c2ccncc2)sc1-c1nnc[nH]1 (centres unmarked) [Compound 193]
101 | 118 | 111 | 60 | – | – | – | – | CC(=O)Nc1cc(-c2cc(C(c3ccc(Cl)cc3)N3CC(N)C3)c(-c3nnc[nH]3)s2)ccn1 (centres unmarked) [Compound 200]
74 | 105 | 110 | 37 | – | – | – | – | CC(=O)Nc1cc(-c2cc(C(c3ccc(Cl)cc3)N3CC(O)C3)c(-c3nnc[nH]3)s2)ccn1 (centres unmarked) [Compound 201]
– | – | – | – | 10 | 88 | 67 | 16 | OC(c1cc(-c2ccncc2)sc1-c1nnc[nH]1)c1c(F)ccc2ccccc12 (centres unmarked) [Compound 203]
90 | 96 | 106 | 11 | – | – | – | – | CC(=O)Nc1cc(-c2cc(C(c3ccc(Cl)cc3)n3cccn3)c(-c3nnc[nH]3)s2)ccn1 (centres unmarked) [Compound 206]
– | – | – | – | 42 | 108 | 107 | 47 | OC(c1ccc2ccccc2c1)c1cc(-c2ccncc2)sc1-c1nnc[nH]1 (centres unmarked) [Compound 208]
52 | 110 | 92 | 68 | – | – | – | – | O=C(O)c1sc(-c2ccncc2)cc1Cc1ccc2ccccc2c1 [Compound 210, 3-(2-naphthylmethyl)-5-pyridin-4-ylthiophene-2-carboxylic acid]
